Measured values as given in patent publication US11266662B2, “Ganaxolone for use in prophylaxis and treatment of postpartum depression” (Marinus Pharmaceuticals, Inc., priority 2018, dated 2022).
Where “and” joins values, the source holds several entries; their conditions need not be identical. Equal entries are not always repeated.

Assay: Phase 2A study (Magnolia) in women with postpartum depression: ganaxolone plasma concentrations / pharmacokinetics
Details: for GNX Concentration: individual subjects, listed as GNX; for concentration at 12 h / concentration at 24 h / concentration at 48 h / concentration at 24 hr / concentration at 48 hr / concentration at 12 hr: female, human, plasma, intravenous, Mean average GNX Concentration
Description: Approximately 200 women with PPD 18 to 45 years of age are screened to randomize up to 100 subjects across up to 6 cohorts. Approximately 10-30 subjects are randomized into each cohort. Randomized subjects receive the investigational product (IP), ganaxolone or matching placebo in a 1:1 ratio. In Cohorts 1-5 the IP is administered intravenously over 60 hours. In Cohort 6 the dosing is initiated with a 6-hour intravenous (IV) infusion followed by oral dosing for 28 days plus 3-day taper.
Ganaxolone is infused at a rate of 4 mg/hr (16 ml/h of ganaxolone 0.25 mg/ml solution) for 48 hours and then, to minimize any risks for withdrawal or rebound of anxiety and depression symptoms, at a rate of 2 mg/hr for the next 12 hours. The infusion is stopped at 60 hours. Total of 9 subjects are dosed for this cohort.
Ganaxolone is infused at a rate of 8 mg/hr (16 ml/h of ganaxolone 0.5 mg/ml solution) for 48 hours and then at a rate of 4 mg/hr for the next 12 hours. This dose is approximately double the expected plasma exposure as compared to Cohort 1 at steady state (Cohort 2 expected plasma concentration ˜100-120 ng/mL). The infusion is stopped at 60 hours.
Twelve mg bolus of ganaxolone is initially given over 2 minutes followed by ganaxolone infusion at a rate of 12 mg/hr (24 ml/h of ganaxolone 0.5 mg/ml solution) for 48 hours. The rate is then reduced to 6 mg/hr for the next 12 hours, which is done to minimize any risks for withdrawal or rebound of anxiety and depression symptoms. The infusion is stopped at 60 hours.
In this cohort dosing is initiated with ganaxolone infusion at a rate of 20 mg/hr (40 ml/h of ganaxolone 0.5 mg/ml solution or matching placebo) for 6 hours followed by ganaxolone 900 mg (four 225 mg capsules per dose) or matching placebo capsules given orally at dinner time for 28 days followed by a 3-day taper (three, two, and one 225 mg capsule(s) per day, respectively).
This initial infusion is targeted to provide a fast onset of antidepressant activity by delivery of rapid plasma exposures to ganaxolone. Then, at dinner time of Day 1 the subjects take their first oral dose of ganaxolone 900 mg (four 225 mg capsules) or matching placebo (4 capsules). […] In previous studies, ganaxolone has been given up to a daily dose of 2000 mg, and at single doses of 1000 mg.
Six samples are collected for pharmacokinetic analysis in Cohorts 1-5 and 12 samples in Cohort 6. […] Seven samples are collected during the inpatient phase of Cohort 6 (including 6 samples on Day 1) followed by collection of 5 samples during the outpatient phase during the study visits for a total of 12 samples in Cohort 6.

SMILES: CC(=O)[C@H]1CC[C@H]2[C@@H]3CC[C@H]4C[C@](C)(O)CC[C@]4(C)[C@H]3CC[C@]12C [ganaxolone, 3α-hydroxy-3β-methyl-5α-pregnan-20-one]
- Targeted ganaxolone plasma concentration at steady state (Css) (Cohort 1, infusion rate 4 mg/hr, estimated target): 52 ng/mL
- GNX Concentration (Cohort 1: IV 4 mg/hr for 48 h then 2 mg/hr for 12 h, time 12 hr): 61.6 ng/mL
- GNX Concentration (Cohort 1: IV 4 mg/hr for 48 h then 2 mg/hr for 12 h, time 24 hr): 59 ng/mL
- Expected plasma concentration at steady state (Cohort 2, 8 mg/hr): 100 to 120 ng/mL
- GNX Concentration (Cohort 2: IV 8 mg/hr for 48 h then 4 mg/hr for 12 h, time 12 hr): 107 ng/mL (2×) and 70.8 ng/mL and 111 ng/mL and 150 ng/mL and 115 ng/mL and 63.3 ng/mL and 69.3 ng/mL and 116 ng/mL and 49.5 ng/mL and 146 ng/mL and 183 ng/mL and 140 ng/mL and 71.5 ng/mL and 77.6 ng/mL
- GNX Concentration (Cohort 2: IV 8 mg/hr for 48 h then 4 mg/hr for 12 h, time 24 hr): 125 ng/mL and 92 ng/mL and 140 ng/mL and 45.5 ng/mL and 75.7 ng/mL and 106 ng/mL and 96.5 ng/mL and 1590* ng/mL and 142 ng/mL and 80.6 ng/mL and 175 ng/mL and 174 ng/mL and 162 ng/mL and 89.3 ng/mL and 26100* ng/mL
- GNX Concentration (Cohort 2: IV 8 mg/hr for 48 h then 4 mg/hr for 12 h, time 48 hr): 120 ng/mL (2×) and 136 ng/mL and 102 ng/mL and 197 ng/mL and 92 ng/mL and 77.8 ng/mL and 73.9 ng/mL and 118 ng/mL and 73.1 ng/mL and 131 ng/mL and 298 ng/mL and 132 ng/mL and 93.6 ng/mL and 7390* ng/mL
- GNX Concentration (Cohort 2: IV 8 mg/hr for 48 h then 4 mg/hr for 12 h, time 72 hr): 27.1 ng/mL and 26.4 ng/mL and 30.1 ng/mL and 28.2 ng/mL and 11.9 ng/mL and 23.9 ng/mL and 23.1 ng/mL and 26.8 ng/mL and 25.6 ng/mL and 19.4 ng/mL and 46.2 ng/mL and 26.9 ng/mL and 21.5 ng/mL and 18.1 ng/mL and 27.5 ng/mL
- Expected peak plasma concentrations during initial 2-minute bolus (Cohort 3, 12 mg bolus over 2 minutes): up to 300 ng/ml
- GNX Concentration (Cohort 3: 12 mg bolus, IV 12 mg/hr for 48 h then 6 mg/hr for 12 h, time 12 hr): 137 ng/mL and 100 ng/mL and 106 ng/mL and 118 ng/mL and 138 ng/mL and 230 ng/mL and 126 ng/mL and 204 ng/mL and 61.1 ng/mL
- GNX Concentration (Cohort 3: 12 mg bolus, IV 12 mg/hr for 48 h then 6 mg/hr for 12 h, time 24 hr): 164 ng/mL and 125 ng/mL and 148 ng/mL and 163 ng/mL and 165 ng/mL and 254 ng/mL and 144 ng/mL and 250 ng/mL and 56 ng/mL and 16 ng/mL
- GNX Concentration (Cohort 3: 12 mg bolus, IV 12 mg/hr for 48 h then 6 mg/hr for 12 h, time 48 hr): 207 ng/mL and 146 ng/mL and 212 ng/mL and 66.4 ng/mL and 211 ng/mL and 213 ng/mL and 4160* ng/mL and 209 ng/mL and 85 ng/mL
- GNX Concentration (Cohort 3: 12 mg bolus, IV 12 mg/hr for 48 h then 6 mg/hr for 12 h, time 72 hr): 49.3 ng/mL and 26.1 ng/mL and 30 ng/mL and 46.2 ng/mL and 44.6 ng/mL and 42.8 ng/mL and 30.2 ng/mL and 31.7 ng/mL and 17.5 ng/mL and 15.2 ng/mL
- concentration at 12 h (86 μg/kg/hr, calculated for dose 86 μg/kg/hr, time 12 hr): 81.4 ng/mL
- concentration at 24 h (86 μg/kg/hr, calculated for dose 86 μg/kg/hr, time 24 hr): 91.2 ng/mL
- concentration at 48 h (86 μg/kg/hr, calculated for dose 86 μg/kg/hr, time 48 hr): 100 ng/mL
- concentration at 12 h (150 μg/kg/hr, calculated for dose 150 μg/kg/hr, time 12 hr): 142 ng/mL
- concentration at 24 hr (150 μg/kg/hr, calculated for dose 150 μg/kg/hr, time 24 hr): 159 ng/mL
- concentration at 48 hr (150 μg/kg/hr, calculated for dose 150 μg/kg/hr, time 48 hr): 175 ng/mL
- concentration at 12 hr (160 μg/kg/hr, calculated for dose 160 μg/kg/hr, time 12 hr): 151 ng/mL
- concentration at 24 hr (160 μg/kg/hr, calculated for dose 160 μg/kg/hr, time 24 hr): 170 ng/mL
- concentration at 48 hr (160 μg/kg/hr, calculated for dose 160 μg/kg/hr, time 48 hr): 187 ng/mL
- concentration at 12 hr (170 μg/kg/hr, calculated for dose 170 μg/kg/hr, time 12 hr): 161 ng/mL
- concentration at 24 hr (170 μg/kg/hr, calculated for dose 170 μg/kg/hr, time 24 hr): 180 ng/mL
- concentration at 48 hr (170 μg/kg/hr, calculated for dose 170 μg/kg/hr, time 48 hr): 199 ng/mL
- concentration at 12 h (180 μg/kg/hr, calculated for dose 180 μg/kg/hr, time 12 hr): 170 ng/mL
- concentration at 24 h (180 μg/kg/hr, calculated for dose 180 μg/kg/hr, time 24 hr): 191 ng/mL
- concentration at 48 h (180 μg/kg/hr, calculated for dose 180 μg/kg/hr, time 48 hr): 210 ng/mL
- concentration at 12 h (190 μg/kg/hr, calculated for dose 190 μg/kg/hr, time 12 hr): 180 ng/mL
- concentration at 24 h (190 μg/kg/hr, calculated for dose 190 μg/kg/hr, time 24 hr): 202 ng/mL
- concentration at 48 h (190 μg/kg/hr, calculated for dose 190 μg/kg/hr, time 48 hr): 222 ng/mL
- concentration at 12 h (200 μg/kg/hr, calculated for dose 200 μg/kg/hr, time 12 hr): 189 ng/mL
- concentration at 24 h (200 μg/kg/hr, calculated for dose 200 μg/kg/hr, time 24 hr): 212 ng/mL
- concentration at 48 h (200 μg/kg/hr, calculated for dose 200 μg/kg/hr, time 48 hr): 234 ng/mL
- concentration at 12 h (210 μg/kg/hr, calculated for dose 210 μg/kg/hr, time 12 hr): 199 ng/mL
- concentration at 24 h (210 μg/kg/hr, calculated for dose 210 μg/kg/hr, time 24 hr): 223 ng/mL
- concentration at 48 h (210 μg/kg/hr, calculated for dose 210 μg/kg/hr, time 48 hr): 246 ng/mL
- concentration at 12 h (220 μg/kg/hr, calculated for dose 220 μg/kg/hr, time 12 hr): 208 ng/mL
- concentration at 24 h (220 μg/kg/hr, calculated for dose 220 μg/kg/hr, time 24 hr): 233 ng/mL
- concentration at 48 h (220 μg/kg/hr, calculated for dose 220 μg/kg/hr, time 48 hr): 257 ng/mL
- concentration at 12 h (260 μg/kg/hr, calculated for dose 260 μg/kg/hr, time 12 hr): 246 ng/mL
- concentration at 24 h (260 μg/kg/hr, calculated for dose 260 μg/kg/hr, time 24 hr): 276 ng/mL
- concentration at 48 h (260 μg/kg/hr, calculated for dose 260 μg/kg/hr, time 48 hr): 304 ng/mL
